Experimental data published in patent US9635859B2, “Pesticidal compositions and processes related thereto” (Dow AgroSciences LLC, priority 2012, dated 2017).

What follows are compounds tested on Beet Armyworm (Spodoptera exigua) (assay: Bioassays on BAW, 128-well diet tray assay). Details: percent mortality, second instar larvae, 50 μg/cm^2 on artificial diet, five to seven days, 25° C.; Table 3.
Assay type: in vivo
Protocol: Certain molecules disclosed in this document were tested against BAW and CEW and CL using procedures described in the following examples. In the reporting of the results, the “BAW & CEW & CL Rating Table” was used (See Table Section).
Bioassays on BAW (Spodoptera exigua)
Bioassays on BAW were conducted using a 128-well diet tray assay. one to five second instar BAW larvae were placed in each well (3 mL) of the diet tray that had been previously filled with 1 mL of artificial diet to which 50 μg/cm^2 of the test compound (dissolved in 50 μL of 90:10 acetone-water mixture) had been applied (to each of eight wells) and then allowed to dry. Trays were covered with a clear self-adhesive cover, and held at 25° C., 14:10 light-dark for five to seven days. Percent mortality was recorded for the larvae in each well; activity in the eight wells was then averaged. The results are indicated in the table entitled “Table 3: Assay Results” (See Table Section).

Compound | BAW Rating
Cc1cc(/C=C/C(c2cc(Cl)cc(Cl)c2)C(F)(F)F)ccc1C(=O)NCc1ccccc1F (centres unmarked) [AC9] | A (50-100)
Cc1cc(/C=C/C(c2cc(Cl)cc(Cl)c2)C(F)(F)F)ccc1C(=O)NC1CSC1 (centres unmarked) [AC10] | A (50-100)
Cc1cc(/C=C/C(c2cc(Cl)cc(Cl)c2)C(F)(F)F)ccc1C(=O)NCc1ccccc1 (centres unmarked) [AC11] | A (50-100)
Cc1cc(/C=C/C(c2cc(Cl)cc(Cl)c2)C(F)(F)F)ccc1C(=O)NCc1ccccn1 (centres unmarked) [AC12] | A (50-100)
Cc1cc(/C=C/C(c2cc(Cl)cc(Cl)c2)C(F)(F)F)ccc1C(=O)NC1CS(=O)(=O)C1 (centres unmarked) [AC13] | A (50-100)
Cc1cc(/C=C/C(c2cc(Cl)cc(Cl)c2)C(F)(F)F)ccc1C(=O)NCc1cnc(Cl)s1 (centres unmarked) [AC15] | A (50-100)
Cc1cc(/C=C/C(c2cc(Cl)cc(Cl)c2)C(F)(F)F)ccc1C(=O)NC(C)(C)c1ccccn1 (centres unmarked) [AC16] | A (50-100)
Cc1cc(/C=C/C(c2cc(Cl)cc(Cl)c2)C(F)(F)F)ccc1C(=O)NNc1ccccc1F (centres unmarked) [AC17] | A (50-100)
Cc1cc(/C=C/C(c2cc(Cl)cc(Cl)c2)C(F)(F)F)ccc1C(=O)NCc1ncccn1 (centres unmarked) [AC18] | A (50-100)
Cc1cc(/C=C/C(c2cc(Cl)cc(Cl)c2)C(F)(F)F)ccc1C(=O)NCc1ccoc1 (centres unmarked) [AC20] | A (50-100)
Cc1cc(/C=C/C(c2cc(Cl)c(Cl)c(Cl)c2)C(F)(F)F)ccc1C(=O)NCc1ccc(Cl)nc1 (centres unmarked) [AC22] | A (50-100)
Cc1cc(/C=C/C(c2cc(Cl)c(Cl)c(Cl)c2)C(F)(F)F)ccc1C(=O)NC1CSC1 (centres unmarked) [AC23] | A (50-100)
Cc1cc(/C=C/C(c2cc(Cl)c(Cl)c(Cl)c2)C(F)(F)F)ccc1C(=O)NCc1cnc(Cl)s1 (centres unmarked) [AC26] | A (50-100)
Cc1cc(/C=C/C(c2cc(Cl)c(Cl)c(Cl)c2)C(F)(F)F)ccc1C(=O)NC(C)(C)c1ccccn1 (centres unmarked) [AC27] | A (50-100)
O=C(NCc1ccc(Cl)nc1)c1ccc(/C=C/C(c2cc(Cl)c(Cl)c(Cl)c2)C(F)(F)F)cc1Cl (centres unmarked) [AC28] | A (50-100)
O=C(NC1CSC1)c1ccc(/C=C/C(c2cc(Cl)c(Cl)c(Cl)c2)C(F)(F)F)cc1Cl (centres unmarked) [AC29] | A (50-100)
O=C(NC1CS(=O)(=O)C1)c1ccc(/C=C/C(c2cc(Cl)c(Cl)c(Cl)c2)C(F)(F)F)cc1Cl (centres unmarked) [AC30] | A (50-100)
O=C(NCc1ccc(Cl)nc1)c1ccc(/C=C/C(c2cc(Cl)c(Cl)c(Cl)c2)C(F)(F)F)cc1Br (centres unmarked) [AC31] | A (50-100)
O=C(NC1CSC1)c1ccc(/C=C/C(c2cc(Cl)c(Cl)c(Cl)c2)C(F)(F)F)cc1Br (centres unmarked) [AC32] | A (50-100)
O=C(NC1CS(=O)(=O)C1)c1ccc(/C=C/C(c2cc(Cl)c(Cl)c(Cl)c2)C(F)(F)F)cc1Br (centres unmarked) [AC33] | A (50-100)
O=C(NC1CSC1)c1ccc(/C=C/C(c2cc(Cl)c(Cl)c(Cl)c2)C(F)(F)F)cc1C(F)(F)F (centres unmarked) [AC34] | A (50-100)

Compound | BAW Rating
O=C(NC1CS(=O)(=O)C1)c1ccc(/C=C/C(c2cc(Cl)c(Cl)c(Cl)c2)C(F)(F)F)cc1C(F)(F)F (centres unmarked) [AC35] | A (50-100)
O=C(NCc1ccc(Cl)nc1)c1ccc(/C=C/C(c2cc(Cl)c(Cl)c(Cl)c2)C(F)(F)F)cc1C(F)(F)F (centres unmarked) [AC36] | A (50-100)
Cc1cc(/C=C/C(c2ccc(Cl)c(Cl)c2)C(F)(F)F)ccc1C(=O)NCc1ccc(Cl)nc1 (centres unmarked) [AC37] | A (50-100)
Cc1cc(/C=C/C(c2cc(Cl)c(F)c(Cl)c2)C(F)(F)F)ccc1C(=O)NCc1ccc(Cl)nc1 (centres unmarked) [AC38] | A (50-100)
Cc1cc(/C=C/C(c2cc(Cl)cc(Cl)c2)C(F)(F)F)ccc1C(=O)NCc1cncnc1 (centres unmarked) [AC39, 4-((E)-3-(3,5-Dichlorophenyl)-4,4,4-trifluorobut-1-enyl)-2-methyl-N-((pyrimidin-5-yl)methyl)benzamide] | A (50-100)
Cc1cc(/C=C/C(c2cc(Cl)cc(Cl)c2)C(F)(F)F)ccc1C(=O)NCC(=O)NC1CC1 (centres unmarked) [AC40] | A (50-100)
Cc1cc(/C=C/C(c2cc(Cl)cc(Cl)c2)C(F)(F)F)ccc1C(=O)NCC(=O)NC1CSC1 (centres unmarked) [AC41] | A (50-100)
Cc1cc(/C=C/C(c2cc(Cl)cc(Cl)c2)C(F)(F)F)ccc1C(=O)NCc1nc2ccccc2s1 (centres unmarked) [AC42] | A (50-100)
Cc1cc(/C=C/C(c2cc(Cl)cc(Cl)c2)C(F)(F)F)ccc1C(=O)NCc1cnccn1 (centres unmarked) [AC43] | A (50-100)
Cc1cc(/C=C/C(c2cc(Cl)cc(Cl)c2)C(F)(F)F)ccc1C(=O)NN(C)c1ccccc1F (centres unmarked) [AC45] | A (50-100)
Cc1cc(/C=C/C(c2cc(Cl)cc(Cl)c2)C(F)(F)F)ccc1C(=O)NCc1ccc(Cl)cc1 (centres unmarked) [AC48] | A (50-100)
O=C(NCc1ccc(Cl)nc1)c1ccc(/C=C/C(c2cc(Cl)cc(Cl)c2)C(F)(F)F)cc1F (centres unmarked) [AC49] | A (50-100)
Cc1cc(/C=C/C(c2cc(Cl)cc(Cl)c2)C(F)(F)F)ccc1C(=O)NCc1nccn1C (centres unmarked) [AC50] | A (50-100)
Cc1cc(/C=C/C(c2cc(Cl)cc(Cl)c2)C(F)(F)F)ccc1C(=O)NCC(=O)N(C)CC(F)(F)F (centres unmarked) [AC51] | A (50-100)
Cc1cc(/C=C/C(c2cc(Cl)c(F)c(Cl)c2)C(F)(F)F)ccc1C(=O)NC1CCOCC1 (centres unmarked) [AC52] | A (50-100)
Cc1cc(/C=C/C(c2cc(Cl)c(F)c(Cl)c2)C(F)(F)F)ccc1C(=O)NCc1ccc(Cl)cn1 (centres unmarked) [AC53] | A (50-100)
Cc1cc(/C=C/C(c2cc(Cl)c(F)c(Cl)c2)C(F)(F)F)ccc1C(=O)NCc1ccnc(Cl)c1 (centres unmarked) [AC54] | A (50-100)
CC(C)(C)OC(=O)CNC(=O)c1ccc(/C=C/C(c2cc(Cl)c(Cl)c(Cl)c2)C(F)(F)F)cc1Br (centres unmarked) [AC58] | A (50-100)
Cc1cc(/C=C/C(c2cc(Cl)cc(Cl)c2)C(F)(F)F)ccc1C(=O)Nc1ccc(Cl)nc1 (centres unmarked) [AC59] | A (50-100)
O=C(NC1CSC1)c1ccc(/C=C/C(c2cc(Cl)cc(Cl)c2)C(F)(F)F)cc1F (centres unmarked) [AC61] | A (50-100)
O=C(CNC(=O)c1ccc(/C=C/C(c2cc(Cl)cc(Cl)c2)C(F)(F)F)cc1F)NCC(F)(F)F (centres unmarked) [AC62] | A (50-100)

Compound | BAW Rating
O=C(NCc1ccc(Cl)nc1)c1ccc(/C=C/C(c2cc(Cl)c(F)c(Cl)c2)C(F)(F)F)cc1Br (centres unmarked) [AC63] | A (50-100)
O=C(CNC(=O)c1ccc(/C=C/C(c2cc(Cl)c(Cl)c(Cl)c2)C(F)(F)F)cc1Cl)NCC(F)(F)F (centres unmarked) [AC64, (E)-2-Chloro-N-(2-oxo-2-((2,2,2-trifluoroethyl)amino)ethyl)-4-(4,4,4-trifluoro-3-(3,4,5-trichlorophenyl)but-1-en-1-yl)benzamide] | A (50-100)
O=C(NCc1ccc(Cl)nc1)c1ccc(/C=C/C(c2cc(Cl)c(F)c(Cl)c2)C(F)(F)F)cc1F (centres unmarked) [AC65] | A (50-100)
O=C(CNC(=O)c1ccc(/C=C/C(c2cc(Cl)c(Cl)c(Cl)c2)C(F)(F)F)cc1Br)NCC(F)(F)F (centres unmarked) [AC66] | A (50-100)
O=C(NC1CSC1)c1ccc(/C=C/C(c2cc(Cl)c(F)c(Cl)c2)C(F)(F)F)cc1F (centres unmarked) [AC67] | A (50-100)
O=C(CNC(=O)c1ccc(/C=C/C(c2cc(Cl)c(F)c(Cl)c2)C(F)(F)F)cc1F)NCC(F)(F)F (centres unmarked) [AC68] | A (50-100)
Cc1cc(/C=C/C(c2cc(Cl)c(F)c(Cl)c2)C(F)(F)F)ccc1C(=O)NCC(=O)NCC(F)(F)F (centres unmarked) [AC69] | A (50-100)
COc1cc(/C=C/C(c2cc(Cl)c(F)c(Cl)c2)C(F)(F)F)ccc1C(=O)NC1CSC1 (centres unmarked) [AC71] | A (50-100)
CCc1cc(/C=C/C(c2cc(Cl)c(F)c(Cl)c2)C(F)(F)F)ccc1C(=O)NCc1ccc(Cl)nc1 (centres unmarked) [AC72] | A (50-100)
O=C(NCc1ccc(C(F)(F)F)nc1)c1ccc(/C=C/C(c2cc(Cl)c(Cl)c(Cl)c2)C(F)(F)F)cc1Br (centres unmarked) [AC75] | A (50-100)
Cc1cc(/C=C/C(c2cc(Cl)c(F)c(Cl)c2)C(F)(F)F)ccc1C(=O)NCc1cc(Cl)ccn1 (centres unmarked) [AC77] | A (50-100)
Cc1cc(/C=C/C(c2cc(Cl)c(Cl)c(Cl)c2)C(F)(F)F)ccc1C(=O)NCC(=O)NCC(F)(F)F (centres unmarked) [AC78] | A (50-100)
O=C(CNC(=O)c1ccc(/C=C/C(c2cc(Cl)c(F)c(Cl)c2)C(F)(F)F)cc1Br)NCC(F)(F)F (centres unmarked) [AC79, (E)-2-Bromo-4-(3-(3,5-dichloro-4-fluorophenyl)-4,4,4-trifluorobut-1-en-1-yl)-N-(2-oxo-2-((2,2,2-trifluoroethyl)amino)ethyl)benzamide] | A (50-100)
CCc1cc(/C=C/C(c2cc(Cl)c(F)c(Cl)c2)C(F)(F)F)ccc1C(=O)NCC(=O)NCC(F)(F)F (centres unmarked) [AC80] | A (50-100)
Cc1cc(/C=C/C(c2cc(Cl)cc(Cl)c2)C(F)(F)F)ccc1C(=O)NCC(=O)NC1CS(=O)(=O)C1 (centres unmarked) [AC81] | A (50-100)
O=C(NC1CS(=O)(=O)C1)c1ccc(/C=C/C(c2cc(Cl)cc(Cl)c2)C(F)(F)F)cc1F (centres unmarked) [AC83, (E)-4-(3-(3,5-Dichlorophenyl)-4,4,4-trifluorobut-1-en-1-yl)-N-(1,1-dioxidothietan-3-yl)-2-fluorobenzamide] | A (50-100)
O=C(NC1CS(=O)(=O)C1)c1ccc(/C=C/C(c2cc(Cl)c(F)c(Cl)c2)C(F)(F)F)cc1F (centres unmarked) [AC84] | A (50-100)
COc1cc(/C=C/C(c2cc(Cl)c(F)c(Cl)c2)C(F)(F)F)ccc1C(=O)NC1CS(=O)(=O)C1 (centres unmarked) [AC85] | A (50-100)
CCc1cc(/C=C/C(c2cc(Cl)c(F)c(Cl)c2)C(F)(F)F)ccc1C(=O)NC1CS(=O)(=O)C1 (centres unmarked) [AC86] | A (50-100)
O=C(NC1C[S+]([O-])C1)c1ccc(/C=C/C(c2cc(Cl)c(F)c(Cl)c2)C(F)(F)F)cc1F (centres unmarked) [AC87] | A (50-100)
